Patent US20210317092A1 (BAYER PHARMA AKTIENGESELLSCHAFT, priority 2016, published 2021)
Like-named read-outs stand apart in the source and are kept apart here.

How the values were obtained:
[1] = target: T1, human Bradykinin B1 receptor (Homo sapiens, UniProt P46663); experiment: Calcium flux Assay (FLIPR) with recombinant CHO-K1 cells expressing human Bradykinin B1 receptor, in presence (hB1 IC50) or absence (hB1 free IC50) of 0.1% BSA; type: cell-based
T1 construct: host or cells: CHO-K1
T1 sequence (P46663 1-353): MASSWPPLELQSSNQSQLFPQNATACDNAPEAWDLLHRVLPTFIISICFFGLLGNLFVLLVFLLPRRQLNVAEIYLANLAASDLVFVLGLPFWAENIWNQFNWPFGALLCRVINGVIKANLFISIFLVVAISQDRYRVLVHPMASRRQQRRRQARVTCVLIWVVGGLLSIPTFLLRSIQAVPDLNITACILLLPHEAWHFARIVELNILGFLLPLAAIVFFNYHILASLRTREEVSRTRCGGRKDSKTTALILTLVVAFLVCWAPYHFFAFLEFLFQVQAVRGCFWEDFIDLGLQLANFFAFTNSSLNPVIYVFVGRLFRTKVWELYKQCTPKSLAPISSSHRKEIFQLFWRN

[2] = target: T2, native human Bradykinin B1 receptor (Homo sapiens, UniProt P46663); experiment: Calcium flux Assay (FLIPR) with human fibroblasts expressing Bradykinin B1 receptor (hB1 IMR-90); type: cell-based; details: IMR-90 human fibroblasts expressing native Bradykinin B1 receptor
T2 construct: which express native human Bradykinin B1 receptor after induction with human IL-10; Coriell Institute; host or cells: IMR-90 human foetal lung fibroblasts, cytokine-induced
T2 sequence (P46663 1-353): T1 sequence (P46663 1-353)
Procedure: Calcium flux Assay (FLIPR) with human fibroblasts expressing Bradykinin B1 receptor (hB1 IMR-90)
The Calcium flux Assay was carried out utilising IMR-90 human foetal lung fibroblasts (American Type Culture Collection, Rockville, Md.; and Coriell Institute, Camden, N.J.), which express native human Bradykinin B1 receptor after induction with human […].
The fibroblasts were cultured in complete growth media comprised of Dulbecco's modified Eagle's medium (DMEM; Sigma) containing 10% foetal bovine serum, 4 mM L-glutamine, and 1% nonessential amino acids. The cells were maintained in a humidified atmosphere with 5% CO2 at 37° C. and were sub-cultured at a ratio of 1:3, every other day.
For the assay, IMR-90 fibroblasts were harvested using TrypLE Express (GIBCO/Invitrogen) and seeded into 384-well plates (Corning Cellbinding Surface, Cat. 3683) at a density of 15000 cells/well. The following day, cells were treated with 0.35 ng/mL human […] in 10% FBS/MEM for 3h to up-regulate Bradykinin B1 receptor. Induced cells were loaded with fluorescent calcium indicator by incubation with 2.5 μM Fluo-4/AM (Invitrogen) at 37° C., 5% CO2 for 2 h in the presence of 2.5 mM probenecid in 1% FBS/MEM. Extracellular dye was removed by washing with assay buffer (2.5 mM probenecid and 0.1% BSA in 20 mM HEPES/HBSS without bicarbonate or phenol red, pH 7.5). Compound examples were assayed at 8 concentrations in triplicate. After addition of compound examples to the cell plate and incubation for 30 min at 28° C., the addition of Bradykinin B1 agonist Lys-(Des-Arg)-Bradykinin (Bachem, Brackley) at a final concentration of EC90 was carried out on the FLIPR instrument while continuously monitoring Ca^2+-dependent fluorescence at 538 nm. A peptide antagonist Lys-(Des-Arg-Leu)-Bradykinin (Bachem, Brackley) at 20 µM was used to determine the full inhibition as control. IC50 values were determined by the same way described for the FLIPR assay with recombinant cells.

[3] = in absence of 0.1% BSA, read-out: hB1 free IC50
[4] = in presence of 0.1% BSA, read-out: hB1 IC50

Structure (SMILES) | IC50 [1, 3] | IC50 [2] | IC50 [1, 4]
O=C(Nc1ccc(-c2ccc(C(F)(F)F)nc2)c(-c2nnn[nH]2)c1)C1(c2cccc(Cl)c2F)CC1 [Example 138, 1-(3-chloro-2-fluorophenyl)-N-{3-(1H-tetrazol-5-yl)-4-[6-(trifluoromethyl)pyridin-3-yl]phenyl} cyclopropane-carboxamide] | 51.3 nM | 102 nM | –
O=C(Nc1ccc(-c2ccc(C(F)(F)F)nc2)c(-c2nnn[nH]2)c1)C1(c2ccc(F)c(Cl)c2)CC1 [Example 139, 1-(3-chloro-4-fluorophenyl)-N-{3-(1H-tetrazol-5-yl)-4-[6-(trifluoromethyl)pyridin-3-yl]phenyl} cyclopropane-carboxamide] | 22.6 nM | 91 nM | –
O=C(Nc1ccc(-c2ccc(C(F)(F)F)nc2)c(-c2nnn[nH]2)c1)C1(c2ccc(C(F)(F)F)cc2)CC1 [Example 140, N-{3-(1H-tetrazol-5-yl)-4-[6-(trifluoromethyl)pyridin-3-yl]phenyl}-1-[4-(trifluoromethyl)phenyl] cyclopropane-carboxamide] | 42.1 nM | 85.1 nM | –
O=C(Nc1ccc(-c2ccc(C(F)(F)F)nc2)c(-c2nnn[nH]2)c1)C1(c2cc(F)ccc2F)CC1 [Example 141, 1-(2,5-difluorophenyl)-N-{3-(1H-tetrazol-5-yl)-4-[6-(trifluoromethyl)pyridin-3-yl]phenyl} cyclopropane-carboxamide] | 224 nM | 141 nM | –
O=C(Nc1ccc(-c2ccc(C(F)(F)F)nc2)c(-c2nnn[nH]2)c1)C1(c2cccc(C(F)(F)F)c2)CC1 [Example 144, N-{3-(1H-tetrazol-5-yl)-4-[6-(trifluoromethyl)pyridin-3-yl]phenyl}-1-[3-(trifluoromethyl)phenyl] cyclopropane-carboxamide] | 300 nM | 289 nM | –
COc1cc(-c2ccc(NC(=O)C3(c4ccc(C(F)(F)F)cc4F)CC3)cc2-c2nnn[nH]2)cnc1C(F)(F)F [Example 147, 1-[2-fluoro-4-(trifluoromethyl)phenyl]-N-{4-[5-methoxy-6-(trifluoromethyl)pyridin-3-yl]-3-(1H-tetrazol-5-yl)phenyl} cyclopropane-carboxamide] | 35.3 nM | 36.3 nM | –
CC(C)Oc1ccc(-c2ccc(NC(=O)C3(c4cccc(Cl)c4)CC3)cc2-c2nnn[nH]2)cn1 [Example 148, 1-(3-chlorophenyl)-N-[4-(6-isopropoxy-pyridin-3-yl)-3-(1H-tetrazol-5-yl)phenyl] cyclopropane-carboxamide] | 1.94 nM | 18.5 nM | 20 nM
CC(C)Oc1ccc(-c2ccc(NC(=O)C3(c4ccc(C(F)(F)F)cc4)CC3)cc2-c2nnn[nH]2)cn1 [Example 149, N-[4-(6-isopropoxy-pyridin-3-yl)-3-(1H-tetrazol-5-yl)phenyl]-1-[4-(trifluoromethyl)phenyl] cyclopropane-carboxamide] | 6.35 nM | 11.8 nM | 14.4 nM
COc1cncc(-c2ccc(NC(=O)C3(c4cccc(Cl)c4)CC3)cc2-c2nnn[nH]2)c1 [Example 153, 1-(3-chlorophenyl)-N-[4-(5-methoxypyridin-3-yl)-3-(1H-tetrazol-5-yl)phenyl] cyclopropane-carboxamide] | 3.64 nM | 18.6 nM | 26.2 nM
CCOc1cncc(-c2ccc(NC(=O)C3(c4ccc(C(F)(F)F)cc4)CC3)cc2-c2nnn[nH]2)c1 [Example 156, N-[4-(5-ethoxypyridin-3-yl)-3-(1H-tetrazol-5-yl)phenyl]-1-[4-(trifluoromethyl)phenyl] cyclopropane-carboxamide] | 36.6 nM | 84.6 nM | 27.5 nM
CCOc1ncc(-c2ccc(NC(=O)C3(c4cccc(Cl)c4)CC3)cc2-c2nnn[nH]2)cc1C [Example 160, 1-(3-chlorophenyl)-N-[4-(6-ethoxy-5-methylpyridin-3-yl)-3-(1H-tetrazol-5-yl)phenyl] cyclopropane-carboxamide] | 8.13 nM | 26.7 nM | 47.7 nM
CCOc1ncc(-c2ccc(NC(=O)C3(c4cccc(Cl)c4)CC3)cc2-c2nnn[nH]2)cc1F [Example 163, 1-(3-chlorophenyl)-N-[4-(6-ethoxy-5-fluoropyridin-3-yl)-3-(1H-tetrazol-5-yl)phenyl] cyclopropane-carboxamide] | 14.2 nM | 28.9 nM | 28.1 nM

Now from value to compound:

IC50 [1, 3] | IC50 [2] | IC50 [1, 4] | Structure (SMILES)
58.6 nM | 27.7 nM | 88.1 nM | CN(C)c1ccc(-c2ccc(NC(=O)C3(c4cccc(Cl)c4F)CC3)cc2-c2nnn[nH]2)cn1 [Example 168, 1-(3-chloro-2-fluorophenyl)-N-{4-[6-(dimethylamino)pyridin-3-yl]-3-(1H-tetrazol-5-yl)phenyl} cyclopropane-carboxamide]
422 nM | 281 nM | 358 nM | O=C(Nc1ccc(-c2ccnc(C(F)(F)F)c2)c(-c2nnn[nH]2)c1)C1(c2cccc(Cl)c2)CC1 [Example 171, 1-(3-chlorophenyl)-N-{3-(1H-tetrazol-5-yl)-4-[2-(trifluoromethyl)pyridin-4-yl]phenyl} cyclopropane-carboxamide]
86.5 nM | 92.4 nM | – | O=C(Nc1ccc(-c2ccnc(C(F)(F)F)c2)c(-c2nnn[nH]2)c1)C1(c2ccc(C(F)(F)F)cc2F)CC1 [Example 173, 1-[2-fluoro-4-(trifluoromethyl)phenyl]-N-{3-(1H-tetrazol-5-yl)-4-[2-(trifluoromethyl)pyridin-4-yl]phenyl} cyclopropane-carboxamide]
216 nM | 687 nM | – | O=C(Nc1ccc(-c2ccnc(C(F)(F)F)c2)c(-c2nnn[nH]2)c1)C1(c2ccc(Cl)cc2F)CC1 [Example 175, 1-(4-chloro-2-fluorophenyl)-N-{3-(1H-tetrazol-5-yl)-4-[2-(trifluoromethyl)pyridin-4-yl]phenyl} cyclopropane-carboxamide]
20.8 nM | 7.29 nM | 14.8 nM | CCc1cc(-c2ccc(NC(=O)C3(c4cccc(Cl)c4)CC3)cc2-c2nnn[nH]2)ccn1 [Example 181, 1-(3-chlorophenyl)-N-[4-(2-ethylpyridin-4-yl)-3-(1H-tetrazol-5-yl)phenyl] cyclopropane-carboxamide]
54.4 nM | 11.1 nM | 33 nM | CCOc1ncc(-c2ccc(NC(=O)C3(c4cccc(Cl)c4F)CC3)cc2-c2nnn[nH]2)cn1 [Example 183, 1-(3-chloro-2-fluorophenyl)-N-[4-(2-ethoxypyrimidin-5-yl)-3-(1H-tetrazol-5-yl)phenyl] cyclopropane-carboxamide]
24.6 nM | 22.3 nM | 50.5 nM | CCOc1ncc(-c2ccc(NC(=O)C3(c4cccc(Cl)c4)CC3)cc2-c2nnn[nH]2)cn1 [Example 184, 1-(3-chlorophenyl)-N-[4-(2-ethoxypyrimidin-5-yl)-3-(1H-tetrazol-5-yl)phenyl] cyclopropane-carboxamide]
189 nM | 340 nM | 250 nM | CO[C@H]1CC[C@H](c2ccc(NC(=O)C3(c4cccc(Cl)c4)CC3)cc2-c2nnn[nH]2)CC1 [Example 190, 1-(3-chlorophenyl)-N-[4-(trans-4-methoxy-cyclohexyl)-3-(1H-tetrazol-5-yl)phenyl] cyclopropane-carboxamide]
11.8 nM | 20.5 nM | – | O=C(Nc1ccc(-c2ccc(C(F)(F)F)nc2)c(-c2nnn[nH]2)c1)C1(c2ccc(C(F)(F)F)cc2F)CC1 [Example 191, 1-[2-fluoro-4-(trifluoromethyl)phenyl]-N-{3-(1H-tetrazol-5-yl)-4-[6-(trifluoromethyl)pyridin-3-yl]phenyl} cyclopropane-carboxamide]
33.9 nM | 29.1 nM | – | O=C(Nc1ccc(-c2ccc(C(F)(F)F)nc2)c(-c2nnn[nH]2)c1)C1(c2ccc(Cl)cc2F)CC1 [Example 192, 1-(4-chloro-2-fluorophenyl)-N-{3-(1H-tetrazol-5-yl)-4-[6-(trifluoromethyl)pyridin-3-yl]phenyl} cyclopropane-carboxamide]
